From PMC2481421, “Gene expression response in target organ and whole blood varies as a function of target organ injury phenotype” (Genome Biology, 2008)
Where “and” joins values, the source holds several entries; their conditions need not be identical. Equal values may be shown once. Entries after “also recorded” stand apart in the source; their conditions may differ.

Tests used:
[1] = tested on: liver; assay: Liver histopathology (H&E sections of left liver lobe, severity graded) after a single dose; conditions: for level of hepatocellular necrosis: medium dose, 6 hour
Procedure: The animals were acclimated for 14 days and observed for absence of disease.
Doses were determined with pilot experiments. For each chemical, doses that elicited a sub-toxic ('low'), a moderately toxic ('medium') or a overtly toxic ('high') response 24 hours after treatment were selected. […] For each compound, control animal groups were treated with vehicle alone. All animals were fasted for 12-18 hours prior to exposure. Groups of four to six animals were dosed between 8:30 and 9:30 a.m.; thereafter, feed was provided ad libitum. After 6, 24 or 48 hours of treatment, animals were anesthetized by isoflurane anesthesia. Whole blood was collected via retro-orbital plexus for hematology and gene expression analysis. Serum was collected for clinical chemistry. The animals were euthanized while under anesthesia by cervical dislocation and necropsied within 4 minutes of sacrifice. The left liver lobe was promptly removed and two defined cross sections were placed in 10% neutral buffered formalin for subsequent histopathology.
The cross sections that were fixed by immersion in 10% neutral buffered formalin (see 'In-life studies' section above) were transferred to histology grade alcohol for 18-24 hours after necropsy. Tissues were then processed, embedded in paraffin, sectioned at 5 microns, and stained with hematoxylin and eosin. A pathologist completed the initial microscopic evaluation of each liver sample for a given compound. […] An independent pathology quality assessment review was performed by a second pathologist on the initial histopathological findings.

[2] = tested on: whole blood; assay: Hematology of whole blood (Technicon H*1, differential and reticulocyte counts); type: in vivo, Male Fischer 344/N rats; conditions: rat, 15 mg/kg, 6 hours, animal 5
Procedure: (§1) Doses were determined with pilot experiments. […] Serum was collected for clinical chemistry.
Blood was collected in EDTA tubes (BD Microtainer® Tubes). The samples were assayed using the Technicon H*1 hematology analyzer (Bayer Corporation, Tarrytown, NY, USA). The instrument performs white blood cell (WBC) counts by two independent methods. The values must have agreed within 10%. Manual counts and smear estimates were used to confirm values, when necessary. To monitor red blood cell (RBC) parameters, spun microhematocrits were performed for each specimen for comparison with the automated hematocrit (which is calculated from the directly measured RBCs and the mean cell volume). Control products were assayed after every tenth specimen. For WBC differential data, smears were Wright-Giemsa stained using an Ames Hema-Tek II automated slide stainer (Bayer Corporation, Ames Division, Elkhart, IN, USA) and manual WBC differential counts were performed on the first sample in each group. For reticulocyte counts, equal amounts of whole blood and New Methylene Blue stain were allowed to incubate at room temperature for at least 15 minutes. Smears were prepared and read to determine the percent reticulocytes per 1,000 RBCs. The percent value is multiplied by the RBC count to determine the absolute number of reticulocytes per microliter. Additional data file 1 details the values for each of these parameters for every animal.

[3] = tested on: serum; assay: Serum clinical chemistry (COBAS MIRA); type: in vivo, Male Fischer 344/N rats; conditions: rat, 15 mg/kg, 6 hours, animal 5
Procedure: as §1
At sacrifice, blood was collected in clotting tubes (BD Microtainer® Tubes, BD, Franklin Lakes, NJ, USA) and serum was separated. Clinical chemistry analysis was performed on all rats using a COBAS MIRA (Roche Diagnostics, Montclair, NJ, USA) using commercially available reagents from Equal Diagnostics (Exton, PA, USA) for the following assays: total protein, albumin, cholesterol, creatinine, direct bilirubin, total bilirubin, total bile acid, blood urea nitrogen and triglycerides. In addition, an enzymatic activity for the following proteins was measured: alanine aminotransferase, alkaline phosphatase, aspartate aminotransferase, lactate dehydrogenase, and sorbitol dehydrogenase. Additional data file 1 details the clinical chemistry value for each of these parameters for every animal.

[4] = In-life observations: body weight, gross findings before and at necropsy; type: in vivo, Male Fischer 344/N rats; conditions: individual animals; for Initial Body Wt.: 48 hours group, baseline weight
Procedure: as §1

[5] = categorical score, rat, 15 mg/kg, 6 hours, animal 5
[6] = severity score, rat, 15 mg/kg, 6 hours, animal 5
[7] = 15 mg/kg, gavage, corn oil, 6 hours
[8] = 15 mg/kg, gavage, corn oil, 24 hours
[9] = 15 mg/kg, gavage, corn oil, 48 hours
[10] = 150 mg/kg, gavage, corn oil, 6 hours
[11] = 150 mg/kg, gavage, corn oil, 24 hours, listed as 1, 2-Dichlorobenzene
[12] = 150 mg/kg, gavage, corn oil, 48 hours, listed as 1, 2-Dichlorobenzene
[13] = 1500 mg/kg, gavage, corn oil, 6 hours
[14] = 1500 mg/kg, gavage, corn oil, 24 hours, listed as 1, 2-Dichlorobenzene
[15] = 1500 mg/kg, gavage, corn oil, 48 hours, listed as 1, 2-Dichlorobenzene
[16] = 15 mg/kg, gavage in corn oil, 48 hours after single dose
[17] = 50 mg/kg, gavage in corn oil, 48 hours after single dose
[18] = 150 mg/kg, gavage in corn oil, 48 hours after single dose
[19] = Gavage, corn oil, 15 mg/kg, 6 hours
[20] = Gavage, corn oil, 15 mg/kg, 24 hours
[21] = Gavage, corn oil, 50 mg/kg, 6 hours
[22] = Gavage, corn oil, 50 mg/kg, 24 hours
[23] = Gavage, corn oil, 150 mg/kg, 6 hours
[24] = Gavage, corn oil, 150 mg/kg, 24 hours

Structure (SMILES): Clc1ccccc1Cl [1,2-Dichlorobenzene]
- Inflammation [1, 5]: 0
- Repair [1, 5]: 0
- Response to Hepatocellular Injury [1, 5]: 0
- level of hepatocellular necrosis ([1]; animal 2): did not have any observable necrosis
- level of hepatocellular necrosis ([1]; animals 1, 3, and 4): minimal
- Bile Duct Hyperplasia [1, 6]: 0
- Cellular Infiltration, Mixed Cell [1, 6]: 0
- Cellular Infiltration, Mononuclear Cell [1, 6]: 0
- Cellular Infiltration, Neutrophil [1, 6]: 0
- Centrilobular Cellular Infiltration, Mixed Cell [1, 6]: 0
- Centrilobular Cellular Infiltration, Mononuclear Cell [1, 6]: 0
- Centrilobular Cellular Infiltration, Neutrophil [1, 6]: 0
- Centrilobular Hepatocyte Degeneration [1, 6]: 0
- Centrilobular Hepatocyte Necrosis [1, 6]: 0
- Centrilobular, Hepatocyte, Midzonal Degeneration [1, 6]: 0
- Centrilobular, Hepatocyte, Midzonal Necrosis [1, 6]: 0
- Congestion [1, 6]: 0
- Depletion Glycogen [1, 6]: 0
- Focal Hepatocyte Necrosis [1, 6]: 0
- Hemorrhage [1, 6]: 0
- Hepatocyte Apoptosis [1, 6]: 0
- Hepatocyte Fatty Change [1, 6]: 0
- Hepatocyte Hypertrophy [1, 6]: 0
- Hepatocyte Necrosis [1, 6]: 0
- Hepatocyte Regeneration [1, 6]: 0
- Midzonal Centrilobular Cellular Infiltration, Mixed Cell [1, 6]: 0
- Midzonal Centrilobular Cellular Infiltration, Neutrophil [1, 6]: 0
- Midzonal Hepatocyte Necrosis [1, 6]: 0
- Mitosis [1, 6]: 0
- Portal Cellular Infiltration, Mixed Cell [1, 6]: 0
- Portal Cellular Infiltration, Neutrophil [1, 6]: 0
- % (Retic) [2]: 1.9%
- Absolute Retic [2]: 0.1604
- Baso-phils [2]: 0.03
- Eosino-phils [2]: 0.06
- Hct [2]: 43.4%
- Hgb 9g/dL0 [2]: 15 g/dL
- LUCs (atyical) [2]: 0.04
- Lympho-cytes [2]: 2.84
- MCH [2]: 17.8 pg
- MCV [2]: 51.4 fL
- Mono-cytes [2]: 0.2
- Neuts (Segs) [2]: 1.59
- Platelets [2]: 601 1000/ul
- RBC [2]: 8.44 mil/ul
- Spun Hct [2]: 45%
- WBC [2]: 4.77 1000/ul
- ALP [3]: 269 U/L
- ALT [3]: 54 U/L
- AST [3]: 128 U/l
- Alb [3]: 2.9 g/dL
- BUN [3]: 20 mg/dL
- CK [3]: 479 U/L
- Chol [3]: 45 mg/dL
- Crea [3]: 1 mg/dL
- D.Bil [3]: 0.2
- LDH [3]: 454 U/L
- SDH [3]: 5 U/L
- T.Bil [3]: 0.9
- T.Protein [3]: 6.7 g/dL
- Trig [3]: 195 mg/dL
- Clin/Ob Prior to Necropsy [4, 7]: Normal
- Gross Findings [4, 7]: No Gross Findings
- Clin/Ob Prior to Necropsy [4, 8]: normal
- Gross Findings [4, 8]: No Gross Findings
- Final Body Wt. ([4]; 15 mg/kg, gavage, corn oil, 24 hours, listed as 1, 2-Dichlorobenzene): 225.00 g and 229.20 g and 252.70 g and 262.00 g
- Clin/Ob Prior to Necropsy [4, 9]: normal
- Gross Findings [4, 9]: No Gross Findings
- Final Body Wt. ([4]; 15 mg/kg, gavage, corn oil, 48 hours, listed as 1, 2-Dichlorobenzene): 238.50 g and 244.20 g and 246.80 g and 250.10 g
- Clin/Ob Prior to Necropsy [4, 10]: Normal
- Gross Findings [4, 10]: No Gross Findings
- Clin/Ob Prior to Necropsy [4, 11]: normal; also recorded: lethargic
- Final Body Wt. [4, 11]: 217.90 g and 205.90 g and 233.30 g and 249.00 g
- Gross Findings [4, 11]: No Gross Findings; also recorded: left & median liver lobe mottled; left dark on edges
- Clin/Ob Prior to Necropsy ([4]; 150 mg/kg, gavage, corn oil, 48 hours): normal
- Final Body Wt. [4, 12]: 235.70 g and 244.20 g and 239.50 g and 241.90 g
- Gross Findings [4, 12]: No Gross Findings; also recorded: left liver lobe rough surface
- Clin/Ob Prior to Necropsy [4, 13]: Normal
- Gross Findings [4, 13]: No Gross Findings
- Clin/Ob Prior to Necropsy [4, 14]: lethargic; also recorded: normal
- Final Body Wt. [4, 14]: 207.10 g and 207.70 g and 219.70 g and 225.00 g
- Gross Findings [4, 14]: left & median liver lobes mottled; left dark on edges; also recorded: No Gross Findings; also recorded: left & median liver lobes mottled; median dark on edges
- Clin/Ob Prior to Necropsy ([4]; 1500 mg/kg, gavage, corn oil, 48 hours): lethargic
- Final Body Wt. [4, 15]: 208.60 g and 211.10 g
- Gross Findings [4, 15]: No Gross Findings; also recorded: left & median liver lobes rough surface

Structure (SMILES): CC(=N)S [Thioacetamide]
- biliary hyperplasia ([1]; 48 hours): evoked biliary hyperplasia
- extent of hepatocellular necrosis, amount of inflammatory cell infiltrates and/or indications of hepatocellular repair (mitosis) across animals ([1]; high dose, 48 hour): variability
- Primary site of livery injury ([1]; rat, single administration): Centrilobular
- Gross Findings ([4]; 15 mg/kg, gavage in corn oil, 48 hours after single dose, at necropsy): No Gross Findings
- Clin/Ob Prior to Necropsy [4, 16]: Ungroomed appearance
- Final Body Wt. [4, 16]: 264.10 g and 257.60 g and 259.00 g and 263.10 g
- Gross Findings ([4]; 50 mg/kg, gavage in corn oil, 48 hours after single dose, at necropsy): Liver left and median lobes rough surface mild; also recorded: Liver left lobe rough surface mild, median lobe pale rough surface mild; also recorded: Liver left and median lobes pale, mildly firm, rough surface
- Clin/Ob Prior to Necropsy [4, 17]: Piloerection; also recorded: Ungroomed appearance
- Final Body Wt. [4, 17]: 233.00 g and 228.70 g and 248.40 g and 236.30 g
- Gross Findings ([4]; 150 mg/kg, gavage in corn oil, 48 hours after single dose, at necropsy): Liver left and median lobes pale, firm, rough surface mild; Kidney red medulla; also recorded: Liver left and median lobes pale, minimally firm, rough surface mild
- Clin/Ob Prior to Necropsy [4, 18]: Ungroomed appearance; piloerection; hunched posture; red fur discoloration (cranial dorsum); also recorded: Ungroomed appearance; piloerection; hunched posture; red nasal discharge
- Final Body Wt. [4, 18]: 230.90 g and 232.40 g and 228.10 g and 228.50 g
- Clin/Ob Prior to Necropsy [4, 19]: Normal
- Gross Findings [4, 19]: No Gross Findings
- Clin/Ob Prior to Necropsy [4, 20]: Normal
- Final Body Wt. [4, 20]: 261.90 g and 245.50 g and 259.10 g and 269.60 g
- Gross Findings [4, 20]: No Gross Findings; also recorded: Liver median lobe rough surface minimal
- Clin/Ob Prior to Necropsy [4, 21]: Normal
- Gross Findings [4, 21]: Liver left lobe mottled; also recorded: No Gross Findings
- Clin/Ob Prior to Necropsy [4, 22]: Ungroomed appearance; also recorded: Normal
- Final Body Wt. [4, 22]: 231.40 g and 233.80 g and 239.30 g and 227.90 g
- Gross Findings [4, 22]: No Gross Findings; also recorded: Liver left lobe rough surface mild, median lobe rough surface minimal; also recorded: Liver left lobe rough surface minimal, median lobe rough surface mild
- Clin/Ob Prior to Necropsy [4, 23]: Normal
- Gross Findings [4, 23]: Liver left lobe mottled; also recorded: No Gross Findings
- Clin/Ob Prior to Necropsy [4, 24]: Normal; also recorded: Red nasal discharge
- Final Body Wt. [4, 24]: 222.50 g and 236.40 g and 240.60 g
- Gross Findings [4, 24]: Liver left and median lobes rough surface mild; also recorded: Liver left lobe mottled rough surface minimal, median lobe rough surface mild
- Initial Body Wt. ([4]; thioacetamide 15 mg/kg, gavage in corn oil): 244.40 g and 241.70 g and 243.00 g and 244.10 g
- Initial Body Wt. ([4]; thioacetamide 50 mg/kg, gavage in corn oil): 243.30 g and 241.60 g and 248.50 g and 241.50 g
- Initial Body Wt. ([4]; thioacetamide 150 mg/kg, gavage in corn oil): 240.40 g and 246.90 g and 242.10 g and 241.40 g
